# Measurements from patent US10450292B2, “Inhibitors of bacterial RNA polymerase: arylpropanoyl, arylpropenoyl, and arylcyclopropanecarboxyl phloroglucinols” (Rutgers, The State University of New Jersey, priority 2015, dated 2019).
# Key:
# [1] = system: Escherichia coli D21f2tolC; test: microbe, parasite or virus in culture; conditions: 16 h, read-out: MIC E. coli D21f2tolC, Mueller-Hinton II agar, 16 h at 37° C.
# [2] = system: Staphylococcus aureus ATCC 12600; test: Inhibition of bacterial growth in culture, spiral gradient endpoint assay (MIC); conditions: for MIC: Staphylococcus aureus, ATCC12600, 16 h, read-out: MIC S. aureus 12600, Mueller-Hinton II agar, 16 h at 37° C.
# [3] = system: Enterococcus faecalis ATCC 19433; test: as above; type: cell-based; conditions: for MIC: Enterococcus faecalis, ATCC 19433 /, 16 h, read-out: MIC E. faecalis, Mueller-Hinton II agar, 16 h at 37° C.
# Description: J. Microbiol. Meths. […] Int. J. Exp. Clin. Chemother. […] Adv.
# [4] = system: Escherichia coli D21f2tolC; conditions: Mueller-Hinton II agar, 16 h at 37° C.
# [5] = Mueller-Hinton II agar, 16 h at 37° C.
SMILES,MIC [1] [µg/mL],MIC [2] [µg/mL],MIC [3] [µg/mL],MIC E. coli D21f2tolC [4] [µg/mL],"MIC S. aureus 12600 [2, 5] [µg/mL]","MIC E. faecalis H37Rv [3, 5] [µg/mL]"
"CCC1=C(O)C(CC)(CC)C(=O)C(C(=O)C2CC2c2ccc(Cl)cc2C)=C1O (stereo not drawn) [Example 82, 2-(2-(4-chloro-2-methylphenyl)cyclopropanecarbonyl)-4,6,6-triethyl-3,5-dihydroxycyclohexa-2,4-dienone]",1.2,3.6,12,–,–,–
"CC1=C(O)C(C)(C)C(=O)C(C(=O)C2CC2c2ccc(C(F)(F)F)cc2C(F)(F)F)=C1O (stereo not drawn) [Example 83, 2-(2-(2,4-bis(trifluoromethyl)phenyl)cyclopropanecarbonyl)-3,5-dihydroxy-4,6,6-trimethylcyclohexa-2,4-dienone]",2.4,5,> 40,–,–,–
"CCC1=C(O)C(CC)(CC)C(=O)C(C(=O)C2CC2c2ccc(Cl)cc2C(F)(F)F)=C1O (stereo not drawn) [Example 84, 2-(2-(4-chloro-2-(trifluoromethyl)phenyl)cyclopropanecarbonyl)-4,6,6-triethyl-3,5-dihydroxycyclohexa-2,4-dienone]",0.44,1.3,2.1,–,–,–
"CC1=C(O)C(C)(C)C(=O)C(C(=O)C2CC2c2ccc(Oc3ccc(F)cc3)cc2C(F)(F)F)=C1O (stereo not drawn) [Example 85, 2-(2-(4-(4-fluorophenoxy)-2-(trifluoromethyl)phenyl)cyclopropanecarbonyl)-3,5-dihydroxy-4,6,6-trimethylcyclohexa-2,4-dienone]",4,12,> 40,–,–,–
"CCCC1=C(O)C(CCC)(CCC)C(=O)C(C(=O)C2CC2c2ccc(C(F)(F)F)cc2C(F)(F)F)=C1O (stereo not drawn) [Example 86, 2-(2-(2,4-bis(trifluoromethyl)phenyl)cyclopropanecarbonyl)-3,5-dihydroxy-4,6,6-tripropylcyclohexa-2,4-dienone]",2.2,0.65,1.7,–,–,–
"CCC1=C(O)C(CC)(CC)C(=O)C(C(=O)C2CC2c2ccc(C(F)(F)F)cc2C(F)(F)F)=C1O (stereo not drawn) [Example 87, 2-(2-(2,4-bis(trifluoromethyl)phenyl)cyclopropanecarbonyl)-4,6,6-triethyl-3,5-dihydroxycyclohexa-2,4-dienone]",3.2,5.9,> 40,–,–,–
"CC1=C(O)C(C)(C)C(=O)C(C(=O)C2CC2c2ccc(C(F)(F)F)cc2)=C1O (stereo not drawn) [Example 88, 3,5-dihydroxy-4,6,6-trimethyl-2-(2-(4-(trifluoromethyl)phenyl)cyclopropanecarbonyl)cyclohexa-2,4-dienone]",> 40,> 40,> 40,–,–,–
"CCC1=C(O)C(CC)(CC)C(=O)C(C(=O)C2CC2c2ccc(Cl)cc2)=C1O (stereo not drawn) [Example 89, 2-(2-(4-chlorophenyl)cyclopropanecarbonyl)-4,6,6-triethyl-3,5-dihydroxycyclohexa-2,4-dienone]",–,–,–,3.0,7.9,>40
"CCC1=C(O)C(CC)(CC)C(=O)C(C(=O)C2CC2c2ccc(C(F)(F)F)cc2)=C1O (stereo not drawn) [Example 90, 4,6,6-triethyl-3,5-dihydroxy-2-(2-(4-(trifluoromethyl)phenyl)cyclopropanecarbonyl)cyclohexa-2,4-dienone]",1.1,1.4,2.3,–,–,–
"CCCC1=C(O)C(CCC)(CCC)C(=O)C(C(=O)C2CC2c2ccc(C(F)(F)F)cc2)=C1O (stereo not drawn) [Example 91, 3,5-dihydroxy-4,6,6-tripropyl-2-(2-(4-(trifluoromethyl)phenyl)cyclopropanecarbonyl)cyclohexa-2,4-dienone]",0.66,0.36,0.41,–,–,–
"CC1=C(O)C(C)(C)C(=O)C(C(=O)C2CC2c2ccc(Oc3ccc(F)cc3)cc2)=C1O (stereo not drawn) [Example 92, 2-(2-(4-(4-fluorophenoxy)phenyl)cyclopropanecarbonyl)-3,5-dihydroxy-4,6,6-trimethylcyclohexa-2,4-dienone]",5.5,21,> 40,–,–,–
